Results from patent publication US12453715B2, “Use of artemether in the prevention and treatment of Alzheimer's disease” (UNIVERSITY OF MACAU, priority 2018, dated 2025).

What was measured:
PC12 cells [1] = assay: MTT assay, Aβ1-42-induced cytotoxicity in PC12 cells; assay type: cell-based; conditions: 1 μM Aβ1-42 for 24 hours
Description: PC12 cells were cultured in DMEM (Dulbecco's Modified Eagle's) medium supplemented with 10% fetal bovine serum (FBS) and 100 μg/ml streptomycin in a humidified incubator 5% CO2 at 37° C. The cells were seeded in 96-well plates, and then treated with Aβ1-42a and artemether. MTT assay was used to access cell viability. MTT (3-(4,5-dimethylthiazole-2)-2,5-diphenyltetrazolium bromide) the detection principle relies on the enzymatic reduction of MTT to water-insoluble purple crystals-formazan particles, which is catalyzed by mitochondrial succinate dehydrogenase produced in living cells. The light absorption value is measured by an enzyme-linked immunoassay at 570 nm wavelength allowing to determine the number of living cells based on the amount of formazan produced. In short, PC12 cells were seeded in 96-well plates. In the next day the medium was replaced with fresh DMEM, and the cells pretreated with different concentrations of artemether or untreated followed by incubation with 1 μM Aβ1-42 for 24 hours. After 24 hours, MTT (0.5 mg/mL) was added to each well and further incubated for another 3 hours at 37° C. After incubation, the cells and MTT formazan crystals were dissolved with DMSO, and the absorbance was measured at 570 nm. Cell viability was calculated as a percentage of the control group.

PC12 cells [2] = assay: AMPK inhibitor compound C against the protective effect of artemether in PC12 cells (MTT, flow cytometry, Western blot); assay type: cell-based
Description: Apoptosis was evaluated by flow cytometry. PC12 cells were seeded into 6-well plates, treated, digested with 0.25% trypsin, harvested, washed twice with ice cold 1×PBS and suspended with buffer. […] were stained with 5 μL Annexin-V-FITC and 10 μL propidium iodide solution, incubated for 30 min in the dark, and the apoptotic cells in each group were determined and analyzed using a flow cytometer. The other steps are the same as in Embodiment 2.4 and Embodiment 10.

| SMILES | effective dose for protection from Aβ1-42-induced cytotoxicity (PC12 cells [1]) | protection from Aβ1-42-induced cytotoxicity (cell viability, MTT) (PC12 cells [1]; artemether pretreatment) | effect on phosphorylation of AMPK and GSK3β (ser9) induced by artemether (PC12 cells [2]; Western blot, GAPDH as internal control) | effect on the protection by artemether from Aβ1-42-induced apoptosis (flow cytometry) (PC12 cells [2]; compound C pretreatment with artemether, Aβ1-42 (1 μM)) | effect on the cell survival effect of artemether (cell viability, MTT) (PC12 cells [2]; compound C pretreatment with artemether, Aβ1-42 (1 μM) for 24 hours) |
| --- | --- | --- | --- | --- | --- |
| CO[C@H]1O[C@@H]2O[C@@]3(C)CC[C@H]4[C@H](C)CC[C@@H]([C@H]1C)[C@@]24OO3 [artemether] | about 10 μM | protected PC12 cells from Aβ1-42-induced cytotoxicity in a concentration-dependent manner |  |  |  |
| c1cc(-c2cnn3cc(-c4ccc(OCCN5CCCCC5)cc4)cnc23)ccn1 [compound C] |  |  | reversed the phosphorylation of AMPK and GSK3β (ser9) induced by artemether | alleviated the protective effect of artemether on Aβ1-42-induced apoptosis | abolished the elevated cell survival effect of artemether |
